Consider six molecules from PMC6524416, “Nanofibrous Scaffolds Support a 3D in vitro Permeability Model of the Human Intestinal Epithelium” (Frontiers in Pharmacology, 2019).

Data set [1] has as its system Caco-2 cultures on nanofibrous scaffolds. Put plainly: Bidirectional permeability across Caco-2 cultures on collagen-coated PET nanofibrous scaffolds. Format: in vitro ADME, human. Here is the method:
(§1) Polyethylene terephthalate flakes (food grade; were procured from recycled plastic bottles and processed in-house) were dissolved in a 1:1 solution of dichloromethane and trifluoroacetic acid (overnight with stirring) and the polymer solution transferred into a syringe fitted with a blunt needle (18 gauge spinneret) attached to a syringe pump (Harvard Apparatus, United Kingdom). Electrospinning was conducted at a flow rate of 0.5 mL/hr at 14 kV voltage (Glassman High Voltage Inc., Series EL, Glassman Europe Ltd., United Kingdom; Supplementary Figure S1). The fibers were collected on a grounded static plate or rotating collector (a tip-collector distance of 15 cm). The scaffolds were removed with the aid of 70% (v/v) IMS and allowed to air dry at room temperature (RT).
(§2) The nanofibrous scaffolds were surface coated with type I bovine collagen (Sigma-Aldrich). For type I bovine collagen coating, 150 μL of collagen solution (stock and working concentrations 3.1 mg/mL and 31 μg/mL, respectively) was gently pipetted ensuring adequate coverage of the entire scaffold. Samples were incubated at RT under aseptic conditions for 1–2 h. Any remaining collagen solution was aspirated and the scaffolds washed with PBS before cell seeding. Control scaffolds included PET nanofibers with no surface treatment.
(§3) Caco-2 (used within 20 passages throughout the study) was obtained from the Clinical Pathology Laboratory, Queens Medical Centre, Nottingham and are available from ATCC. They were cultured in DMEM (Gibco) supplemented with 10% (v/v) foetal calf serum (FCS), 2 mM L-Glutamine solution, 1% (v/v) antibiotic/antimycotic solution (Gibco; final concentrations of […] streptomycin sulfate and 25 μgmL^-1 amphotericin B) at 37°C, 5% CO2 in 95% relative humidity (RH). Cells were cultured to around 80% confluence before harvesting cells by passaging with Trypsin/EDTA (Sigma Aldrich). Cell culture media was replaced every 2 days. For the initial evaluation of the scaffold compatibility, Collagen type I and untreated nanofibrous scaffolds were mounted in 24-well Cell Crown^TM inserts (Scaffdex). The mounted inserts were then placed in 12-well culture plates and seeded with 50,000 cells in 200 μL per insert. An additional 1 mL culture media was added to the well of the plate which ensured the insert were adequately surrounded and bathed in culture media. Following 24 h of culture at 37°C, 5% CO2, the PrestoBlue viability assay was carried out according to manufacturer’s instructions. In brief, a working solution of 10% (v/v) was prepared from the stock PrestoBlue solution in HBSS and sterile filtered using a 0.2 μm pore filter. Samples were washed three times with pre-warmed PBS and the working solution of PrestoBlue solution applied to the upper chamber of the inserts. Following a 30 min incubation period at 37°C, 5% CO2 with shaking at 150 rpm, 100 μL aliquots were taken from each sample and dispensed in triplicate into a black 96-well plate. The fluorescence of the samples was determined using a plate reader (Tecan Infinite 200, Tecan, United Kingdom) at 530/590 nm (excitation/emission wavelengths). Subsequent viability assays were conducted on day 3 and day 6 of culture to provide an initial assessment of the benefit of the surface treatments on cell adhesion and proliferation. To evaluate barrier formation, Snapwell® hanging inserts (6-well; Corning Life Sciences) were employed as unlike the CellCrown^TM inserts, the Snapwell® hanging inserts provided discrete apical and basolateral chambers in a 6-well plate formate appropriate for assessing barrier formation. The existing polycarbonate membrane on the securing clip of the Snapwell® insert were removed with a scalpel and the nanofiber scaffold affixed securely to the hanging insert by means of the securing clip (Supplementary Figure S1).
For orientation: Passage across Caco-2 layers is used to estimate intestinal permeability.

Data set [2] in a line: Bidirectional permeability across ex vivo porcine intestinal segments. Format: in vitro ADME, pig. As to conditions: pig; for recovery: pH 7.4, porcine intestinal segments; for Papp A→B / Papp B→A: pH 7.4, all porcine segments (duodenum, jejunum, ileum); for Papp A→B: A to B, read-out: Papp (A to B), range over porcine segments; for Papp B→A: B to A, read-out: Papp (B to A), range over porcine segments. Here is the method:
(§4) In accordance with the NC3R framework on the reduction and refinement of animals in research; samples were only obtained from healthy adult pig cadavers being used for the purposes of other research projects. The work was conducted according to United Kingdom Home Office guidelines (Animal Scientific Procedures Act […]) and following local AWERB approval (ref 000057). Regional sections from the duodenum (first 25 cm from the stomach), jejunum (150 cm from the stomach) and ileum (first 50 cm back from the ileocecal valve) were resected from pig cadavers (Supplementary Figure S2). Using tweezers the serosa and muscularis propria (muscle layers) were carefully peeled away leaving the mucosa. Sections were washed in PBS, cut to fit the Transwell® inserts (Corning Life Sciences) and transferred in 6-well plates. All tissue was kept on the ice and used within a 24 h time period, post-collection.
(§5) Transport studies were conducted using standard, widely accepted protocols as previously described ([Volpe, 2008]). Transport markers were prepared in transport buffer (HBSS, 25 mM HEPES, pH 7.4). Dimethyl sulfoxide (DMSO) was used to aid solubilisation of poorly soluble drugs at a maximum final concentration of 0.1% (v/v) used in all transport experiments. TEER was measured before and after each experiment to ensure barrier integrity during the experiments and as a control measure of experimental validity. Inserts were transferred to fresh plates containing transport buffer (apical/basolateral volumes were 0.4/1.2 mL and 0.5/6 mL for Transwell® and Snapwell® inserts, respectively). Donor solutions were added to the relevant compartments and the inserts were then incubated at 37°C with shaking at 150 rpm and sampled at intervals of 30 min or 1 h for 1–2 h. Apparent permeability coefficients (Papp) were calculated according to Eq. 2:
(§6) Where dQ/dt is the flux of the compound being investigated (μM s-1), A is the exposed surface area of the insert/scaffold (cm^2) and C0 is the concentration in the apical compartment at t = 0 (μM).
(§7) Compound recovery following permeability assessment were calculated according the following Eq. 3:
(§8) (3) Recovery (%)=[CR(final)×VR(final))×100/(CD(initial)×VD(initial)]
(§9) Where CD and CR are the donor and receiver compartment concentrations, VD and VR are the donor and receiver compartment volumes at t = 0 (initial) or the end of the experiment (final).
(§10) All HPLC was performed using a Kinetix XB-C18 5 μm, 100 Å pore size, 150 mm × 4.56 mm column (with a guard column) on an Agilent 1100 HPLC system. […] Samples were analyzed using gradient runs with Milli-Q dH2O, 0.5% TFA (eluent A) and acetonitrile, 0.5% TFA (eluent B).

Data set [3] concerns porcine intestinal segments. The data set is described as above. Format: in vitro ADME, pig. On the procedure:
as §4, §5, §6, §7, §8, §9, §10

The nature of data set [4]: Bidirectional permeability across Caco-2 monolayers on Transwell inserts. The data set is classed as in vitro ADME, human. As to conditions: human, Caco-2 on Transwell; for Papp A→B: apical to basolateral; for Papp A→B / Papp B→A: pH 7.4, mean (±SD); for Papp B→A: basolateral to apical. Here is the method:
as §3, with “S1). Cells were seeded using the same cell density (178,000 cells/cm^2) as had been previously optimized for Caco-2 Transwell® cultures ([Hubatsch et al., 2007]). A cell suspension containing 200,000 cells in 500 μL were seeded onto the upper chamber of the Snapwell® inserts and cultured for 15–21 days at 37°C, 5% CO2 in air prior for TEER evaluation and for permeability tests.” for “S1).”
as §5, with “2: […]” for “2:”

Another data set deals with human jejunal. As to conditions: ref Sjöberg et al. (2013), Rozehnal et al. (2012), cited from earlier work.
Data set [5] can be described thus: Bidirectional permeability across Caco-2 cultures on collagen-coated PET nanofibrous scaffolds. The data set is classed as in vitro ADME, human. As to conditions: human, Caco-2 on nanofiber scaffolds, pH 7.4, mean (±SD). Here is the method:
as §1, §2, §3

Data set [6] deals with porcine intestinal tissue. As to conditions: uncorrected Papp; ref Westerhout et al. (2014); cited from earlier work.
Data set [7] relates to Caco-2 monolayers on Transwell®. Briefly: Bidirectional permeability across Caco-2 monolayers on Transwell inserts. The data set is classed as in vitro ADME, human. As to conditions: Caco-2 on Transwell, pH 7.4, mean (±SD). Here is the method: as §3, with “S1). Cells were seeded using the same cell density (178,000 cells/cm^2) as had been previously optimized for Caco-2 Transwell® cultures ([Hubatsch et al., 2007]). A cell suspension containing 200,000 cells in 500 μL were seeded onto the upper chamber of the Snapwell® inserts and cultured for 15–21 days at 37°C, 5% CO2 in air prior for TEER evaluation and for permeability tests.” for “S1).”
as §5, with “2: […]” for “2:”

Another data set concerns Caco-2 monolayers. Further details: method as in Artursson et al., 1993, 2001. As to conditions: ref Artursson et al., 1993, 2001; cited from earlier work.

Where two headings read alike, the source gives them in different places.

Consider `COC(=O)c1ccccc1-c1c2ccc(=N)cc-2oc2cc(N)ccc12` [Rho-123, rhodamine 123], for which the active efflux entry in [1] (3D nanofiber based cultures) and in data set [3] (porcine tissue segments) was “not detectable” in each case. In addition, the recovery in data set [2] (read-out: recovery (range)) is 37 to 54%. The apical-to-basolateral permeability (Papp A→B) (in general, the apparent permeability from the apical to the basolateral side of a cell layer) was 5.6 to 7.6 ×10⁻⁶ cm/s in data set [2] and 0.82 ×10⁻⁶ cm/s in [4]. For the same molecule, the apparent permeability from basolateral to apical (Papp B→A) (as a rule, how fast a substance crosses the layer from the basolateral side) is 1.8 to 3.6 ×10⁻⁶ cm/s in [2] and 3.8 ×10⁻⁶ cm/s in data set [4]. Further, the efflux ratio (as a rule, the permeability from basolateral to apical divided by that in the opposite direction, in the common usage) at 10 µM in data set [4] (pH 7.4, B to A / A to B) amounted to 4.6.

As to `CC(C)NCC(O)COc1ccc(CC(N)=O)cc1` (stereo not drawn) [ATN, Atenolol], the recovery in data set [2] (read-out: average recovery) was 80%; in [2] (read-out: recovery (range)), 70 to 95%.

As to `OC[C@@H](O)[C@@H](O)[C@H](O)[C@H](O)CO` [mannitol], the “human jejunal Papp” value in the data set on human jejunal (second listed value) was 5.56 ± 2.21 × 10^-6 cm s^-1.

As to `CC(C)NCC(O)COc1cccc2ccccc12` (stereo not drawn) [PRN, Propranolol], the “increase in permeability over Transwell cultures” value in [1] (nanofiber based culture vs Transwell Caco-2) is reported as “more than a two-fold increase”. For the same molecule, the apparent permeability from apical to basolateral (Papp A→B) in data set [5] (apical to basolateral) was 86.3 ×10⁻⁶ cm/s; in [2], 7.76 to 9.6 ×10⁻⁶ cm/s; in [4] it was 30.7 ×10⁻⁶ cm/s. In addition, the apparent permeability from basolateral to apical (Papp B→A) in [5] (basolateral to apical) was 75.1 ×10⁻⁶ cm/s; in data set [2] it was 1.85 to 5.5 ×10⁻⁶ cm/s; in [4], 32 ×10⁻⁶ cm/s. Further, the recovery is 58% in data set [2] (read-out: average recovery) and 35 to 75% in data set [2] (read-out: recovery (range)). The Papp (in general, a coefficient for how fast a substance crosses the barrier) in data set [6] was 0.42 ×10⁻⁶ cm/s.

As to lucifer yellow [LY], the “Papp (A to B)” value in data set [1] (Caco-2 on nanofiber scaffolds, apical to basolateral, pH 7.4, mean (±SD)) is recorded as 7.14 (±0.4.53) × 10^-6 cm s^-1; in [3] (porcine duodenal section), 4.66 (±1.19) × 10^-6 cm s^-1; in data set [3] (porcine ileal section), 5.58 (±3.93) × 10^-6 cm s^-1; in data set [3] (porcine jejunal section) it was 5.71 (±1.50) × 10^-6 cm s^-1; in data set [7] (apical to basolateral) it was 0.30 (±0.13) × 10^-6 cm s^-1. The “Papp (B to A)” value in [1] (Caco-2 on nanofiber scaffolds, basolateral to apical, pH 7.4, mean (±SD)) is recorded as 8.51 (±6.61) × 10^-6 cm s^-1; in data set [3] (porcine duodenal section), 2.01 (±0.85) × 10^-6 cm s^-1; in data set [3] (porcine ileal section), 3.80 (±3.46) × 10^-6 cm s^-1; in data set [3] (porcine jejunal section), 4.31 (±2.58) × 10^-6 cm s^-1; in data set [7] (basolateral to apical), 0.66 (±0.23) × 10^-6 cm s^-1. The “human jejunal Papp” value with human jejunal (first listed value) is 4.02 ± 2.20 × 10^-6 cm s^-1.

Turning to polyethylene glycols, in the data set with Caco-2 monolayers, the “fold lower permeability in Caco-2 monolayers compared to human in vivo” value is reported as about 100 fold.
